Laboratory results reported in publication PMC4503722, “Novel Phenotypic Outcomes Identified for a Public Collection of Approved Drugs from a Publicly Accessible Panel of Assays” (PLoS ONE, 2015).

Assays:
[1] = system: endothelial tube formation in co-cultures of ECFCs and ADSCs treated with VEGF; test: cells; type: cell-based, human
DLD-1 = test: cells; type: cell-based; settings: for Basal_Viability ATP DLD-1 IC50/EC50: assay number 23
SW480 = test: cells; type: cell-based; settings: for Basal_Viability ATP SW480 IC50/EC50: assay number 24
HCT116 = test: cells; type: cell-based; settings: basal; for Basal_Viability ATP HCT116 IC50/EC50: assay number 25
[2] = system: HCT116 cells treated with a GSK3β inhibitor; test: cells; type: cell-based; settings: for GSK3b inh pretreated_Viability ATP HCT116 IC50/EC50: assay number 26, GSK3b inhibitor pretreated; for IC50/EC50, GSK3b inh pretreated_Viability ATP HCT116 (assay number 26): GSK3b inh pretreated
Colo320 = test: cells; type: cell-based; settings: for Basal_Viability ATP Colo 320 IC50/EC50: assay number 27
HT-29 = test: cells; type: cell-based; settings: for Basal_Viability ATP HT-29 IC50/EC50: assay number 28
RKO = test: cells; type: cell-based; settings: for Basal_Viability ATP RKO IC50/EC50: assay number 29
SNU-C1 = test: cells; type: cell-based; settings: for Basal_Viability ATP SNU-C1 IC50/EC50: assay number 30
[3] = system: ECFC/ADSC co-culture cell nuclei number

Compound | VEGF_ADSC\ECFC Angio CD31 TubeArea IC50/EC50 [1] [µM] | Basal_Viability ATP DLD-1 IC50/EC50 (DLD-1; concentration response) [µM] | Basal_Viability ATP SW480 IC50/EC50 (SW480; concentration response) [µM] | Basal_Viability ATP HCT116 IC50/EC50 (HCT116; concentration response) [µM] | GSK3b inh pretreated_Viability ATP HCT116 IC50/EC50 ([2]; concentration response) [µM] | Basal_Viability ATP Colo 320 IC50/EC50 (Colo320; concentration response) [µM] | Basal_Viability ATP HT-29 IC50/EC50 (HT-29; concentration response) [µM] | Basal_Viability ATP RKO IC50/EC50 (RKO; concentration response) [µM] | Basal_Viability ATP SNU-C1 IC50/EC50 (SNU-C1; concentration response) [µM] | VEGF_ADSC\ECFC Angio Hoechst NucArea IC50/EC50 [3] [µM] | IC50/EC50, VEGF_ADSC\ECFC Angio CD31 TubeArea (assay number 2) [1] [µM] | IC50/EC50, Basal_Viability ATP DLD-1 (assay number 23) (DLD-1; basal) [µM] | Basal_Viability ATP DLD-1 IC50/EC50 (DLD-1; basal) [µM] | Basal_Viability ATP SW480 IC50/EC50 (SW480; basal) [µM] | Basal_Viability ATP HCT116 IC50/EC50 (HCT116) [µM] | GSK3b inh pretreated_Viability ATP HCT116 IC50/EC50 [2] [µM] | Basal_Viability ATP Colo 320 IC50/EC50 (Colo320; basal) [µM] | Basal_Viability ATP HT-29 IC50/EC50 (HT-29; basal) [µM] | Basal_Viability ATP RKO IC50/EC50 (RKO; basal) [µM] | Basal_Viability ATP SNU-C1 IC50/EC50 (SNU-C1; basal) [µM] | also measured
O=C(NC(=O)c1c(F)cccc1F)Nc1ccc(Cl)c(Oc2ncc(C(F)(F)F)cc2Cl)c1 [NCGC00166205-02] | > 10 | > 20 | > 20 | > 20 | 10.6205 | > 20 | > 20 | 11.8144 | > 20 | > 10 | – | – | – | – | – | – | – | – | – | – | –
C[C@H](O)CN(C)C [NCGC00166221-02] | – | – | – | – | – | – | – | – | – | – | > 10 | > 20 | – | – | – | – | – | – | – | – | IC50/EC50, Basal_Viability ATP SW480 (assay number 24) (SW480; basal): > 20 µM; IC50/EC50, Basal_Viability ATP HCT116 (assay number 25) (HCT116): > 20 µM; IC50/EC50, GSK3b inh pretreated_Viability ATP HCT116 (assay number 26) [2]: > 20 µM; IC50/EC50, Basal_Viability ATP Colo 320 (assay number 27) (Colo320; basal): > 20 µM; IC50/EC50, Basal_Viability ATP HT-29 (assay number 28) (HT-29; basal): > 20 µM; IC50/EC50, Basal_Viability ATP RKO (assay number 29) (RKO; basal): > 20 µM; IC50/EC50, Basal_Viability ATP SNU-C1 (assay number 30) (SNU-C1; basal): > 20 µM; IC50/EC50, VEGF_ADSC\ECFC Angio Hoechst NucArea (assay number 3) [3]: > 10 µM
C=CCCCCCCCCC(=O)OC [NCGC00166231-02] | > 10 | > 20 | > 20 | > 20 | > 20 | > 20 | > 20 | > 20 | > 20 | > 10 | – | – | – | – | – | – | – | – | – | – | –
Clc1ccc(C(Cn2ccnc2)OCc2ccsc2Cl)c(Cl)c1 (stereo not shown) [NCGC00167430-04] | 4.9961 | – | – | – | – | – | – | – | – | 9.466 | – | – | > 20 | > 20 | 4.0687 | 2.843 | 5.2288 | > 20 | 5.2538 | 2.1843 | –
Cc1cccc(C)c1NC(=O)CC12CCCN1CCC2 [NCGC00167454-02] | > 10 | – | – | – | – | – | – | – | – | > 10 | – | – | > 20 | > 20 | > 20 | > 20 | > 20 | > 20 | > 20 | > 20 | –
CC(C)Cn1cnc2c1c(=O)n(C)c(=O)n2C [NCGC00168348-03] | > 10 | – | – | – | – | – | – | – | – | > 10 | – | – | > 20 | > 20 | > 20 | > 20 | > 20 | > 20 | > 20 | > 20 | –
CC(=O)N(CC(O)CN(C(C)=O)c1c(I)c(C(=O)NCC(O)CO)c(I)c(C(=O)NCC(O)CO)c1I)c1c(I)c(C(=O)NCC(O)CO)c(I)c(C(=O)NCC(O)CO)c1I (stereo not shown) [NCGC00179408-03] | > 10 | – | – | – | – | – | – | – | – | > 10 | – | – | > 20 | > 20 | > 20 | > 20 | > 20 | > 20 | > 20 | > 20 | –
CN1CCN(CCCN2c3ccccc3Sc3ccc(S(=O)(=O)N(C)C)cc32)CC1 [NCGC00179625-03] | – | – | – | – | – | – | – | – | – | – | > 10 | 14.5523 | – | – | – | – | – | – | – | – | IC50/EC50, Basal_Viability ATP SW480 (assay number 24) (SW480; basal): > 20 µM; IC50/EC50, Basal_Viability ATP HCT116 (assay number 25) (HCT116): > 20 µM; IC50/EC50, GSK3b inh pretreated_Viability ATP HCT116 (assay number 26) [2]: > 20 µM; IC50/EC50, Basal_Viability ATP Colo 320 (assay number 27) (Colo320; basal): 8.1661 µM; IC50/EC50, Basal_Viability ATP HT-29 (assay number 28) (HT-29; basal): > 20 µM; IC50/EC50, Basal_Viability ATP RKO (assay number 29) (RKO; basal): 5.9932 µM; IC50/EC50, Basal_Viability ATP SNU-C1 (assay number 30) (SNU-C1; basal): 2.1198 µM; IC50/EC50, VEGF_ADSC\ECFC Angio Hoechst NucArea (assay number 3) [3]: > 10 µM
N/C(=N\N=C\c1ccc(Cl)cc1)N/N=C/c1ccc(Cl)cc1 [NCGC00181026-02] | – | – | – | – | – | – | – | – | – | – | > 10 | 0.6538 | – | – | – | – | – | – | – | – | IC50/EC50, Basal_Viability ATP SW480 (assay number 24) (SW480; basal): 0.2252 µM; IC50/EC50, Basal_Viability ATP HCT116 (assay number 25) (HCT116): 0.394 µM; IC50/EC50, GSK3b inh pretreated_Viability ATP HCT116 (assay number 26) [2]: 0.3442 µM; IC50/EC50, Basal_Viability ATP Colo 320 (assay number 27) (Colo320; basal): 0.4583 µM; IC50/EC50, Basal_Viability ATP HT-29 (assay number 28) (HT-29; basal): 0.6811 µM; IC50/EC50, Basal_Viability ATP RKO (assay number 29) (RKO; basal): 0.47 µM; IC50/EC50, Basal_Viability ATP SNU-C1 (assay number 30) (SNU-C1; basal): 0.2795 µM; IC50/EC50, VEGF_ADSC\ECFC Angio Hoechst NucArea (assay number 3) [3]: > 10 µM
CC(C)(CO)[C@@H](O)C(=O)NCCC(=O)NCCSSCCNC(=O)CCNC(=O)[C@H](O)C(C)(C)CO [NCGC00181028-02] | > 10 | > 20 | > 20 | > 20 | > 20 | > 20 | > 20 | > 20 | > 20 | > 10 | – | – | – | – | – | – | – | – | – | – | –
